These results are taken from article PMC5063977 (The Journal of Biological Chemistry, 2016).

Common to all, as to type: cell-based
The target of one test is T1, RAMP2-CLR (AM1 receptor) (Homo sapiens, UniProt O60895+Q16602).
T1 construct: FLAG; expressed in transfected cells; host or cells: HEK-293 or HEK-293S cells, transient transfection, 1:1 RAMP:CLR
Briefly: cAMP accumulation, HEK-293S cells, RAMP2 + CLR. Particulars: HEK293S, untreated, percentage of maximal cAMP with 100 μM forskolin in presence of PTX, mean ± S.E., n = 5. The method, then:
(§1) HEK-293 cells were transfected with FuGENE 6 (Roche Applied Science) in accordance with the manufacturer's instructions using a 1:3 (w:v) DNA:FuGENE ratio and a 1:1 ratio of RAMP to CLR. […] The transfected cell lines were grown for 24–48 h prior to assaying.
The transfected HEK-293 cells were washed in PBS, resuspended in stimulation buffer (PBS containing 0.1% BSA and 0.5 mM IBMX), and seeded at 2000 cells/well in 384-well white Optiplates. Ligands were added in the range of 1 pM to 1 mM, and cAMP accumulation was measured after 30 min of stimulation using a LANCE® cAMP detection kit (PerkinElmer Life Sciences). […] Plates were read using a Mithras LB 940 multimode microplate reader (Berthold Technologies). […] Values were converted to concentration using a cAMP standard curve performed in parallel.
(§2) Data analysis for cAMP assays was performed in GraphPad Prism 6.0f (San Diego, CA). […] These values were then used to quantify signaling bias as change in log (τ/Ka) relative to the natural cognate ligand for the respective receptor ([41]). […] Statistical differences were analyzed using one-way ANOVA or Student's t test as appropriate with post hoc Bonferroni's or Dunnett's multiple comparisons, and p < 0.05 was considered significant. […] To quantitate the ligand-dependent response in the yeast system, a strain lacking GPA1 (MMY11), grown in rich medium, was used as a standard ([72]). […]

The next test deals with T2, RAMP3-CLR (AM2 receptor) (Homo sapiens, UniProt O60896+Q16602).
T2 construct: FLAG; expressed in transfected cells; host or cells: HEK-293 or HEK-293S cells, transient transfection, 1:1 RAMP:CLR
Kind of test: cAMP accumulation, HEK-293S cells, RAMP3 + CLR. Further details: dose or concentration left out as unconfirmed. Particulars: HEK293S, mean ± S.E., n = 5. On the procedure:
HEK-293 cells, provided by Dr. Jügen Müller (University of Aston), were cultured in DMEM supplemented with 10% heat-inactivated FBS and kept at 37 °C in a humidified 95% air, 5% CO2 incubator. HEK-293S cells (a gift from AstraZeneca) were cultured in DMEM supplemented with 8% heat-inactivated FBS and kept at 37 °C in a humidified 95% air, 5% CO2 incubator. HEK-293 cells were transfected with FuGENE 6 (Roche Applied Science) in accordance with the manufacturer's instructions using a 1:3 (w:v) DNA:FuGENE ratio and a 1:1 ratio of RAMP to CLR. HEK-293S cells were seeded into 96-well poly-D-lysine-coated plates at a density of 15,000 cells/well (determined using a Countess^TM cell counter, Invitrogen) 1 day prior to transfection. HEK-293S cells were transiently transfected as described previously ([38]) using a 1:1 ratio of RAMP to CLR. The transfected cell lines were grown for 24–48 h prior to assaying.
The transfected HEK-293 cells were washed in PBS, resuspended in stimulation buffer (PBS containing 0.1% BSA and 0.5 mM IBMX), and seeded at 2000 cells/well in 384-well white Optiplates. Ligands were added in the range of 1 pM to 1 mM, and cAMP accumulation was measured after 30 min of stimulation using a LANCE® cAMP detection kit (PerkinElmer Life Sciences). […] Plates were read using a Mithras LB 940 multimode microplate reader (Berthold Technologies). […]

The target of test [1] is T3, RAMP1-CLR (CGRP receptor) (Homo sapiens, UniProt O60894+Q16602).
T3 construct: FLAG; expressed in transfected cells; host or cells: HEK-293 or HEK-293S cells, transient transfection, 1:1 RAMP:CLR
Briefly: (Ca^2+)i mobilization, HEK-293S cells, RAMP1 + CLR. The settings on record: HEK293S, percentage of maximal (Ca^2+)i release with 10 μM ionomycin, mean ± S.E., n = 5. On the procedure:
as §1
Transfected HEK-293 cells were grown to confluence in black, clear bottomed, 96-well plates. […] Cells were then washed followed by the addition of 100 μl of Ca^2+-free Hanks' balanced salt solution. […] Recordings were obtained every 0.5 s for 120 s. Peak magnitude was calculated using five-point smoothing followed by correction against background fluorescence. The peak was used to generate concentration-response curves and normalized relative to 10 μM ionomycin.
as §2

The structures appear in SMILES notation.

T2 sequence (Q16602 23-461): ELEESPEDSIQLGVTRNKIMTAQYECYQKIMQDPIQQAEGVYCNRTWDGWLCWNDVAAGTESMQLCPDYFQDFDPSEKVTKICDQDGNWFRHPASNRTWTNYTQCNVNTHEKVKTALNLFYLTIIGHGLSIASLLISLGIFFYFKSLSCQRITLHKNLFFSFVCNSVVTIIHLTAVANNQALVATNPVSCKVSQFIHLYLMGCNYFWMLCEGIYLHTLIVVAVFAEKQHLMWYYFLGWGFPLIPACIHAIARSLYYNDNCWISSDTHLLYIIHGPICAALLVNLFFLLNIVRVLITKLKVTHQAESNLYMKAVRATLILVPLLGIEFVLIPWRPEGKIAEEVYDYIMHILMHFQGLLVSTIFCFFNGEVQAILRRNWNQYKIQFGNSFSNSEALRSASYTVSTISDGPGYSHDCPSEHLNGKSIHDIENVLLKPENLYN
T2 sequence (O60896 24-148): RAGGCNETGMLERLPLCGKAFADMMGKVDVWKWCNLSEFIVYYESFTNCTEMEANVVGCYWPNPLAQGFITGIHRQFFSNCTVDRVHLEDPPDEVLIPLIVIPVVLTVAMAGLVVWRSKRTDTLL
T1 sequence (Q16602 23-461): as the sequence (Q16602 23-461) above
T1 sequence (O60895 43-175): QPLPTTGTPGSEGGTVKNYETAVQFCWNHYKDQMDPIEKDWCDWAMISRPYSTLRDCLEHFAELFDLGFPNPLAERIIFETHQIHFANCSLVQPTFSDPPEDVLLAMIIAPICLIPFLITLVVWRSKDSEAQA
T3 sequence (Q16602 23-461): as the sequence (Q16602 23-461) above
T3 sequence (O60894 27-148): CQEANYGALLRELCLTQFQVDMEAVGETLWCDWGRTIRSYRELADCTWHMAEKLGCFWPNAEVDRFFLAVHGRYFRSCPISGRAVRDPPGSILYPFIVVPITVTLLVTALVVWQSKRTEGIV

For the compound `CSCC[C@H](NC(=O)[C@H](CC(C)C)NC(=O)[C@H](CCC(N)=O)NC(=O)[C@H](Cc1c[nH]c2ccccc12)NC(=O)[C@H](CC(C)C)NC(=O)[C@H](CCCNC(=N)N)NC(=O)[C@H](Cc1c[nH]cn1)NC(=O)[C@H](CO)NC(=O)[C@H](CC(C)C)NC(=O)[C@H](CC(N)=O)NC(=O)[C@H](CCC(N)=O)NC(=O)[C@@H](NC(=O)[C@H](CCC(N)=O)NC(=O)[C@@H]1CSSC[C@H](NC(=O)CNC(=O)[C@@H](NC(=O)[C@H](CCCNC(=N)N)NC(=O)[C@H](CC(C)C)NC(=O)[C@H](CC(C)C)NC(=O)[C@H](CCC(N)=O)NC(=O)[C@H](C)NC(=O)[C@H](CCC(N)=O)NC(=O)[C@@H](N)[C@@H](C)O)C(C)C)C(=O)N[C@@H](C(C)C)C(=O)N[C@@H](CC(C)C)C(=O)NCC(=O)N[C@@H]([C@@H](C)O)C(=O)N1)C(C)C)C(=O)NCC(=O)N1CCC[C@H]1C(=O)N[C@@H](C)C(=O)NCC(=O)N[C@@H](CCCNC(=N)N)C(=O)N[C@@H](CCC(N)=O)C(=O)N[C@@H](CC(=O)O)C(=O)N[C@@H](CO)C(=O)N[C@@H](C)C(=O)N1CCC[C@H]1C(=O)N[C@H](C(=O)N[C@@H](CC(=O)O)C(=O)N1CCC[C@H]1C(=O)N[C@@H](CO)C(=O)N[C@@H](CO)C(=O)N1CCC[C@H]1C(=O)N[C@@H](Cc1c[nH]cn1)C(=O)N[C@@H](CO)C(=O)N[C@@H](Cc1ccc(O)cc1)C(N)=O)C(C)C` [AM2, adrenomedullin 2], the maximal effect (Emax) at RAMP2-CLR (AM1 receptor) is 40.3 ± 1.5%.
On to `CC[C@H](C)[C@H](NC(=O)[C@H](CCC(N)=O)NC(=O)[C@H](Cc1c[nH]cn1)NC(=O)[C@H](C)NC(=O)[C@H](CC(C)C)NC(=O)[C@H](CCCCN)NC(=O)[C@H](CCC(N)=O)NC(=O)[C@@H](NC(=O)[C@@H](NC(=O)[C@@H]1CSSC[C@H](NC(=O)CNC(=O)[C@H](Cc2ccccc2)NC(=O)[C@H](CO)NC(=O)[C@H](CCCNC(=N)N)NC(=O)[C@H](CC(C)C)NC(=O)CNC(=O)[C@H](CCC(N)=O)NC(=O)[C@H](Cc2ccccc2)NC(=O)[C@H](CC(N)=O)NC(=O)[C@H](CC(N)=O)NC(=O)[C@H](CCSC)NC(=O)[C@H](CO)NC(=O)[C@H](CCC(N)=O)NC(=O)[C@H](CCCNC(=N)N)NC(=O)[C@@H](N)Cc2ccc(O)cc2)C(=O)N[C@@H](CCCNC(=N)N)C(=O)N[C@@H](Cc2ccccc2)C(=O)NCC(=O)N[C@@H]([C@@H](C)O)C(=O)N1)[C@@H](C)O)C(C)C)C(=O)N[C@@H](Cc1ccc(O)cc1)C(=O)N[C@@H](CCC(N)=O)C(=O)N[C@@H](Cc1ccccc1)C(=O)N[C@H](C(=O)N[C@@H](CC(=O)O)C(=O)N[C@@H](CCCCN)C(=O)N[C@@H](CC(=O)O)C(=O)N[C@@H](CCCCN)C(=O)N[C@@H](CC(=O)O)C(=O)N[C@@H](CC(N)=O)C(=O)N[C@H](C(=O)N[C@@H](C)C(=O)N1CCC[C@H]1C(=O)N[C@@H](CCCNC(=N)N)C(=O)N[C@@H](CO)C(=O)N[C@@H](CCCCN)C(=O)N[C@H](C(=O)N[C@@H](CO)C(=O)N1CCC[C@H]1C(=O)N[C@@H](CCC(N)=O)C(=O)NCC(=O)N[C@@H](Cc1ccc(O)cc1)C(N)=O)[C@@H](C)CC)C(C)C)[C@@H](C)O` [AM, adrenomedullin], for which the maximal effect (Emax) on RAMP3-CLR (AM2 receptor) amounted to 39.1 ± 1.2%; in test [1], 38.2 ± 3.8%.
